Assay results taken from patent publication US20050048490A1, “Proteins associated with cell growth, differentiation, and death” (incyte corp., priority 2002, published 2005).

What was measured:
SEQ ID NO:96 = assay: Microarray expression analysis, steroid-treated versus untreated C3A cells; assay type: cell-based, human; details: early confluent C3A cells treated at 1, 10, and 100 μM for 1, 3, and 6 hours
Description: (§1) Total RNA is isolated from tissue samples using the guanidinium thiocyanate method and poly(A)^+ RNA is purified using the oligo-(dT) cellulose method. Each poly(A)^+ RNA sample is reverse transcribed using MMLV reverse-transcriptase, 0.05 pg/μl oligo-(dT) primer (21mer), 1× first strand buffer, 0.03 units/μl RNase inhibitor, 500 μM dATP, 500 μM dGTP, 500 μM dTTP, 40 μM dCTP, 40 μM dCTP-Cy3 (BDS) or dCTP-Cy5 (Amersham Biosciences). The reverse transcription reaction is performed in a […] containing 200 ng poly(A)^+ RNA with GEMBRIGHT kits (Incyte Genomics). Specific control poly(A)^+ RNAs are synthesized by in vitro transcription from non-coding yeast genomic DNA. […]
(§2) Sequences of the present invention are used to generate array elements. […] Array elements are amplified in thirty cycles of PCR from an initial quantity of 1-2 ng to a final quantity greater than 5 μg. […]
(§3) Reporter-labeled hybridization complexes are detected with a microscope equipped with an Innova 70 mixed gas 10 W laser (Coherent, Inc., Santa Clara Calif.) capable of generating spectral lines at 488 nm for excitation of Cy3 and at 632 nm for excitation of Cy5. […]
(§4) A grid is superimposed over the fluorescence signal image such that the signal from each spot is centered in each element of the grid. […]

SEQ ID NO:94 = assay: Microarray expression analysis, activated versus untreated Jurkat cells; assay type: cell-based, human; details: Jurkat cells treated with combinations of graded doses of PMA (5 nM-1 μM) and ionomycin (50 ng/ml-10μ/ml), 1 hour time point
Description: as §1, §2, §3, §4

SEQ ID NO:102 = assay: Microarray expression analysis, TNF-α treated versus untreated HUVECs; assay type: cell-based, human; details: HUVECs at 85% confluence treated for 0.33, 0.66, 1, 4, 8, 24, 48, and 72 hours, versus untreated HUVECs (0 hour)
Description: as §1, §2, §3, §4

SEQ ID NO:101 = assay: as above; assay type: cell-based, human; details: HUVECs at 85% confluence treated for 0.33, 0.66, 1, 4, 8, 24, 48, and 72 hours, versus untreated HUVECs (0 hour)
Description: as §1, §2, §3, §4

SEQ ID NO:104 = assay: Microarray expression analysis, preadipocytes exposed to differentiation factors versus untreated; assay type: cell-based; details: human preadipocytes treated with human insulin and PPAR-γ agonist for 3 days, then insulin
Description: as §1, §2, §3, §4

Compound	expression of SEQ ID NO:96 (SEQ ID NO:96)	expression of SEQ ID NO:94 (SEQ ID NO:94)	other results
6-methyl-17-hydroxyprogesterone [medroxyprogesterone]	decreased expression	–	–
CCCCCCCCCCCCCC(=O)O[C@@H]1[C@@H](C)[C@@]2(O)[C@@H](C=C(CO)C[C@]3(O)C(=O)C(C)=C[C@@H]23)[C@@H]2C(C)(C)[C@]12OC(C)=O [PMA, Phorbol myristate acetate]	–	decreased expression	–
C[C@H]1C[C@H]2[C@@H]3CCC4=CC(=O)C=C[C@]4(C)[C@@]3(Cl)[C@@H](O)C[C@]2(C)[C@@]1(O)C(=O)CO [beclomethasone, Beclomethasone]	decreased expression	–	–
C[C@H](CCC(=O)O)C[C@H](C)C[C@H](C)C(=O)/C=C(\O)[C@H](C)C[C@H](C)C/C=C/[C@@H](C)[C@@H](O)[C@@H](C)[C@@H](O)C[C@@H]1CC[C@@](C)([C@H]2CC[C@@](C)([C@@H](C)O)O2)O1 [ionomycin, Ionomycin]	–	decreased expression	–
TNF-α	–	–	expression of SEQ ID NO:102 (SEQ ID NO:102): decreased expression; expression of SEQ ID NO:101 (SEQ ID NO:101): decreased expression
human insulin: differentiation factor used on human preadipocytes	–	–	expression of SEQ ID NO:104 (SEQ ID NO:104): decreased expression
